Measurements taken from patent US10668057B2, “Compositions and methods for inducing conformational changes in cereblon and other E3 ubiquitin ligases” (Celgene Corporation, priority 2014, dated 2020).

What was measured:
CRBN [1] = target: T1, CRBN (Homo sapiens, UniProt Q96SW2); conditions: in vitro; cited from earlier work
CRBN^E377V = target: T2, CRBN^E377V (Homo sapiens, UniProt Q96SW2, E377V); test: Thalidomide analog-coupled affinity bead assay, DF15R CRBN^E377V cell extracts; format: binding; conditions: preincubation of cell extracts with free compound, comparable to CRBN^WT
T2 construct: Cell lines re-expressing RFP or full length CRBN wild type or E377V mutant; expressed in transfected cells; host or cells: DF15R (CRBN-deficient myeloma line), lentiviral system; cell extract
Method: (§1) DF15, DF15R or DF15R derived cell line extracts were prepared in NP 40 lysis buffer (0.5% NP40, 50 mM Tris HCl (pH 8.0), 150 mM NaCl, 0.5 mM DTT, 0.25 mM PMSF, 1× protease inhibitor mix (Roche, Indianapolis, Ind.) at approximately 2×10^8 cells per ml […]. Cell debris and nucleic acids were cleared by centrifugation (14,000 rpm 30 min 4° C.). In competition experiments 0.5 ml (3-5 mg protein) aliquots of the resulting extracts were preincubated (15 min room temp.) with 5 μl DMSO (control) or 5 μl compound at varying concentrations in DMSO. Thalidomide analog-coupled beads (0.3-0.5 mg) were added to protein extracts and samples rotated (2 hours, 4° C.). Beads were washed three times with 0.5 ml NP40 buffer, and then bound proteins were eluted with SDS-PAGE sample buffer.
To probe the function of the residues proximal to the bound IMiD® drug, we performed mutagenesis of residue E377 to valine in the human CRBN sequence and re-expressed the protein using a lentiviral system in DF15R cells. Cell extracts from this line were used to assay the ability of CRBN^E377V to bind IMiD® compound.

CRBN^WT = target: T3, CRBN^WT (Homo sapiens, UniProt Q96SW2); test: Thalidomide analog-coupled affinity bead assay, DF15R CRBN^WT cell extracts; format: binding; conditions: preincubation of cell extracts with free compound
T3 construct: re-express full length wild type (CRBN^WT), W386A (CRBN^W386A) or W400A (CRBN^W400A) mutant versions of CRBN; FLAG; expressed in transfected cells; host or cells: DF15R (CRBN-deficient myeloma line), lentiviral transduction, puromycin selection; cell extract
Method: as §1

[2] = mice and rats; cited from earlier work
[3] = test system: TMD8 (ABC) or Karpas 422 (GCB) cells; test: 3H-thymidine incorporation proliferation assay, co-treatment with lenalidomide; format: cell-based; conditions: for anti-proliferative effects on co-treatment with lenalidomide: co-treatment with 10 μM lenalidomide
[4] = test system: panel of tumor cell lines; test: Potency across a panel of tumor cell lines; format: cell-based
Method: The potency of CC-885 was assessed across a panel of tumor cell lines, including B-lymphoma, breast, CNS, colon, kidney, leukemia, lung, melanoma, multiple myeloma, ovary and prostate.

CRBN [5] = target: T1, CRBN; test: Thalidomide analog affinity bead competition, U266 cell extracts; format: binding; set-up: extracts prepared from U266 multiple myeloma cells; endogenous in cells; host or cells: U266 multiple myeloma cells (cell extract); conditions: U266 MM cell extracts, competition with thalidomide analog affinity beads
Method: Immunoblot analysis of extracts prepared from U266 multiple myeloma cells and pre-incubated with vehicle DMSO (D), Pomalidomide (Pom) or CC-885 at the indicated concentrations, and bound to thalidomide analog affinity beads, washed and eluted with SDS buffer as previously described (Ito et al, 2010; Lopez-Girona et al, 2012). Samples were subjected to SDS-PAGE and immunoblot analysis using anti-CRBN 65-76 (1:10,000 dilution; Red signal) and anti-DDB1 (Cell Signaling) (1:2,000 dilution; Green signal). A LI-COR Odissey system was used to quantify CRBN band density and relative amounts of CRBN were determined by averaging at least three DMSO controls and expressing CRBN in each competition sample as percent inhibition of CRBN protein relative to the averaged controls as 100% binding. […] Cell proliferation assay of DF15 (sensitive), DF15R (resistant; CRBNnull) cells treated with a dose response of CC-885. Assays were done in triplicate and error bars represent s.d. Data for each cell line was normalized to treatment with vehicle (DMSO). […] Cell proliferation assay of DF15 (sensitive), DF15R (resistant; CRBNnull), DF15R-hCRBNWT (human CRBN), DF15R-RFP cells treated with a dose response of CC-885. […] Assays were done in triplicate and error bars represent s.d. Data for each cell line was normalized to treatment with vehicle (DMSO). […]

H929 = test: Apoptosis in multiple myeloma cell line H929; format: cell-based; conditions: 0.01 nM to 1000 nM, assessed at 24 hrs
Method: The multiple myeloma cell line, H929, was cultured and treated with CC-885 or other CMA analogs at various concentrations from 0.01 nM to 1000 nM. Apoptosis was assessed at 24 hrs. later.

MDA-MB-231 = test: Growth inhibition and pro-apoptotic activity in breast cancer cells treated with CRBN siRNA; format: cell-based; conditions: CRBN siRNA vs negative control
Method: Breast cancer cells (MDA-MB-231) were treated with CRBN siRNA or a negative control. CC-885 was added at a concentration between 0 to 100 μM, and CRBN levels were assessed at 48 hours post treatment.

[6] = test system: DF15 (sensitive), DF15R (resistant; CRBNnull) cells; test: Cell proliferation assay of DF15, DF15R and DF15R-derived cells with CC-885; format: cell-based
DF15R cells = test: Cell proliferation assay of DF15R cells re-expressing CRBN wild type or mutants; format: cell-based
IL-2 = IL-2 induction in mouse splenocytes; format: cell-based
Source text: FIGS. 26A-26B show IL2 costimulation by pomalidomide. FIG. 26A: Co-stimulation of IL2 release by pomalidomide in human PBMCs treated with anti-CD3. Data are shown as mean±s.d. FIG. 26B: Costimulation of IL2 release by anti-CD28 (squares) or pomalidomide (circles) in mouse PBMC treated with anti-CD3. Data are shown as mean±s.d.

H929 and U266 = test: Cell viability in CRBN inducible shRNA knockdown myeloma cells; format: cell-based; conditions: CRBN inducible knockdown vs shControl, 5 day treatment
Source text: FIG. 25A: An inducible shRNA construct targeting CRBN or a control construct was transduced into the multiple myeloma cell lines H929 and U266. Inducible shRNA expression (marked by turbo-RFP) was monitored by flow cytometry over a period of 1 to 9 days as indicated in the histograms (Top row). […] FIG. 25B: CRBN protein expression was quantified by Western blotting. […] Data are shown as mean of three independent experiments±s.d.
Inducible shRNA constructs targeting CRBN or a control construct (Open Biosystems) were transduced using spinoculation methodology into the multiple myeloma cell lines H929 and U266. Stably transduced cells were selected with puromycin. Inducible shRNA expression (marked by RFP) was monitored by fluorescence microscopy and flow cytometry using 1 μg/mL doxycycline. CRBN protein expression was quantified by Western blotting. Cell proliferation and viability were assessed by 7AAD/flow cytometry assays. 6.9.2.5 Immunoblot and Immunohistochemistry

Compound: O=C1CCC(N2C(=O)c3ccccc3C2=O)C(=O)N1 (racemic) [thalidomide]
- auto-ubiquitination of CRBN (CRBN [1]): able to inhibit
- competition for CRBN^E377V binding to thalidomide analog-beads (CRBN^E377V): competed
- competition for CRBN binding to thalidomide analog-beads (CRBN^WT): competed for binding to the beads
- teratogenic effects [2]: insensitive

Compound: Cc1ccc(NC(=O)NCc2ccc3c(c2)CN(C2CCC(=O)NC2=O)C3=O)cc1Cl (stereo not shown) [CC-885, 1-(3-chloro-4-methylphenyl)-3-((2-(2,6-dioxopiperidin-3-yl)-1-oxoisoindolin-5-yl)methyl)urea]
- anti-proliferative effects on co-treatment with lenalidomide [3]: blocks anti-proliferative effects
- potency across tumor cell line panel ([4]; B-lymphoma, breast, CNS, colon, kidney, leukemia, lung, melanoma, multiple myeloma, ovary and prostate): potent
- Therapeutic Index ([4]; toxic effects at low doses): low
- binding to CRBN protein (CRBN [5]): binds
- early apoptosis (H929): induced early apoptosis
- growth inhibition, dependence on CRBN (MDA-MB-231): CRBN is required
- pro-apoptotic activity, dependence on CRBN (MDA-MB-231): CRBN is required
- anti-proliferative activity after re-expression of human CRBN ([6]; DF15R-hCRBNWT): recues CC-885 anti-proliferative activity
- anti-proliferative activity, dependence on CRBN ([6]; DF15 vs DF15R (CRBNnull)): CRBN is required

Compound: Cc1nc2cccc(N)c2c(=O)n1C1CCC(=O)NC1=O (stereo not shown) [Compound A, 3-(5-amino-2-methyl-4-oxo-4H-quinazolin-3-yl)-piperidine-2,6-dione]
- anti-proliferative effects on co-treatment with lenalidomide [3]: blocks anti-proliferative effects

Compound: Nc1cccc2c1CN(C1CCC(=O)NC1=O)C2=O (stereo not shown) [lenalidomide, 3-(4-amino-1-oxo-1,3-dihydro-isoindol-2-yl)-piperidine-2,6-dione]
- competition for CRBN ([3]; against Compound A and CC-885): competes
- teratogenic effects [2]: insensitive

Compound: Nc1cccc2c1C(=O)N(C1CCC(=O)NC1=O)C2=O (stereo not shown) [pomalidomide]
- sensitivity to antiproliferative effect (DF15R cells; DF15R re-expressing CRBN^E377V): unable to rescue sensitivity
- antiproliferative effect (DF15R cells; DF15R re-expressing CRBN^WT): regained antiproliferative effect
- IL-2 inducing effects (IL-2): resistant
- competition for CRBN^E377V binding to thalidomide analog-beads (CRBN^E377V): competed
- anti-proliferative effects (H929 and U266): reduced anti-proliferative effects
- competition for CRBN binding to thalidomide analog-beads (CRBN^WT): competed for binding to the beads
